Measurements taken from patent US10544110B2, “Small molecule inhibitors of the nuclear translocation of androgen receptor for the treatment of castration-resistant prostate cancer” (University of Pittsburgh-Of the Commonwealth System of …, priority 2013, dated 2020).

Tests used:
[1] = test system: 22Rv 1 xenograft tumors; assay: 22Rv1 xenograft tumor growth; format: in vivo; conditions: castrated SCID mice, daily IP 10 mg/kg and 75 mg/kg
Protocol: FIG. 11 is a graph showing the effect of compound JJ-450 at indicated concentrations on 22Rv 1 xenograft tumor volume. JJ-450 was injected i.p. daily.
22Rv 1 xenograft tumors were established in SCID mice by subcutaneous injection of 2×10^6 cells in Matrigel. Once the tumors reached ˜150 μL in volume, the mice were castrated and randomized into 3 groups for daily IP injection of vehicle (n=11), 10 mg/kg (n=11) and 75 mg/kg (n=11) groups. Injection of JJ-450 was initiated at time of castration. Tumor volumes were measured 3 times every week. […] Error bars, SEM.

[2] = test system: LNCaP xenograft tumors; assay: LNCaP xenograft tumor growth; format: in vivo; conditions: castrated SCID mice, oral gavage 10 or 75 mg/kg or IP 10 mg/kg, started 2 weeks after castration
Protocol: FIG. 12 is a graph showing the effect of compound JJ-450 at indicated concentrations and administration route on LNCaP xenograft tumor volume. JJ-450 was administered 6 times, from Monday to Saturday, every week
LNCaP xenograft tumors were established in SCID mice by subcutaneous injection of 2×10^6 cells in Matrigel. Once the tumors reached ˜200 ul in volume, the mice were castrated and randomized into 4 groups: oral gavage of vehicle (n=6), oral gavage at 10 mg/kg (n=6), IP injection at 10 mg/kg (n=8), and oral gavage at 75 mg/kg (n=7) groups. Administration of JJ-450 was started 2 weeks after castration. Tumor volumes were measured twice every week. […] Error bars, SEM.

[3] = test system: AR transcriptional activity (PSA promoter activity); assay: PSA luciferase assay in C4-2-PSA-rl cells (Dual-Glo luciferase system); conditions: C4-2-PSA-rl cells
Protocol: C4-2-PSA-rl cells were seeded in 24-well plates such that they reached 75-80% cell monolayer density after 24 h. […] Each compound was tested in at least two independent experiments. Luciferase activity was assayed using the Dual-Luciferase® Reporter Assay System (Promega) using LMax II Microplate Reader (Molecular Devices). The luciferase assay results were acquired using SoftMax Pro5.45 software (Molecular Devices) and analyzed using GraphPad Prism. PSA6.1-luc activity was normalized to the Renilla luciferase activity. Relative luciferase activity was calculated as the quotient of androgen-induced PSA-firefly/Renilla luciferase activity. Since PSA promoter activity correlates to AR transcriptional activity, inhibition of AR will result in decreased PSA-luciferase activity.

[4] = test system: 22Rv1; assay: Effectiveness against androgen-dependent prostate cancer cell line 22Rv1; format: cell-based

For Cc1ccc(Cl)cc1N1CCN(C(=O)[C@@H]2C[C@@H]2c2ccc(F)cc2)CC1 (racemic) [JJ-450, (4-(5-Chloro-2-methylphenyl)piperazin-1-yl)((1RS,2SR)-2-(4-fluorophenyl)cyclopropyl)-methanone], the “22Rv1 xenograft tumor growth (tumor volume)” value [1] was “significantly inhibited tumor growth”, the “LNCaP xenograft tumor growth (tumor volume)” value [2] was “significantly inhibited tumor growth” and the IC50 ([3]; 24 h, 24 h treatment, 1 nM R1881, mean and SD of 2-6 independent experiments) was 2700 ± 1100 nM. For the same compound, the “activity in PSA luciferase assay (in words)” value ([3]; up to 25 μM) was “significantly more potent than 1”.

For CNC(=O)c1ccc(N2C(=S)N(c3ccc(C#N)c(C(F)(F)F)c3)C(=O)C2(C)C)cc1F [MDV3100, enzalutamide], the “effectiveness against 22Rv1” value [4] was “ineffective”.
